From PMC4886613 (Journal of natural products, 2009) come the findings set out here.

The term IC50 denotes the concentration needed to halve the response being measured.

Common to all, as to format: cell-based
Assay [1] concerns Plasmodium falciparum. Put plainly: antimalarial activity. The conditions noted are these: in words; clone not specified.
Assay [2] relates to culture of Leishmania donovani. The assay is described as follows: in vitro antileishmanial activity. The conditions noted are these: in words.
The subject of assay [3] is Candida albicans ATCC 90028. Put plainly: in vitro antifungal activity, Candida albicans. To be noted: ATCC90028, read-out: antifungal C. albicans IC50.
The test system of assay [4] is Plasmodium falciparum (D6 clone). The assay is described as follows: in vitro antimalarial activity, D6 clone. To be noted: D6, read-out: antimalarial P. falciparum D6 (IC50).
Assay [5] concerns P. falciparum (W2 clone). Put plainly: microbe, parasite or virus in culture. The conditions noted are these: Plasmodium falciparum, W2, read-out: antimalarial P. falciparum W2 (IC50).

Turning to `CCCCCc1cc(O)c2c(c1OC(C)=O)OC(C)(CCC=C(C)C)C=C2` (racemic) [Compound 1, (±)-4-acetoxycannabichromene], in assay [1], the antimalarial activities entry is listed as “mild antimalarial activities”. In assay [2], the antileishmanial activity result is on record as “moderate antileishmanial activity”.
In the case of `C=C(C)C(O)CCC1(C)C=Cc2c(O)cc(CCCCC)cc2O1` (racemic) [Compound 2, (±)-3″-hydroxy-Δ^(4″,5″)-cannabichromene], the antileishmanial activity result in assay [2] is “moderate antileishmanial activity”.
Regarding `CCCCCc1cc(O)c(C/C=C(\C)CCC=C(C)C)c(OC(C)=O)c1O` [Compound 5, 5-acetyl-4-hydroxycannabigerol], in assay [1], the antimalarial activities entry is listed as “mild antimalarial activities”. The antileishmanial activity entry in assay [2] is given as “strong antileishmanial activity”.
On to `CCCCCc1c(C/C=C(\C)CCC=C(C)C)c(O)cc(O)c1OC(C)=O` [Compound 6, 4-acetoxy-2-geranyl-5-hydroxy-3-n-pentylphenol], for which the antileishmanial activity entry in assay [2] is on record as “moderate antileishmanial activity”.
`C[C@@H]1[C@H](O)[C@@H](C)/C=C/C=C/C=C/C=C/C=C/C=C/C=C/[C@H](O[C@@H]2O[C@H](C)[C@@H](O)[C@H](N)[C@@H]2O)C[C@@H]2O[C@](O)(C[C@@H](O)C[C@@H](O)[C@H](O)CC[C@@H](O)C[C@@H](O)CC(=O)O[C@H]1C)C[C@H](O)[C@H]2C(=O)O` [amphotericin B]: the IC50 in assay [3] was found to be 300 nM.
On to `CCN(CC)CCCC(C)Nc1ccnc2cc(Cl)ccc12` (stereo not drawn) [chloroquine], for which the values for the concentration for half-maximal inhibition (IC50) in assay [4] and in assay [5] were 100 nM and 500 nM, respectively.
